Results: ChEMBL document CHEMBL1156803, “Novel 3-arylideneindolin-2-ones as inhibitors of NAD+ -dependent histone deacetylases (sirtuins)” (J Med Chem, 2010)
The source made the active and inactive calls. The rule behind the calls is not given here.

Experiments:
[1] = target: T1, NAD-dependent protein deacetylase sirtuin-1 (Homo sapiens) (UniProt Q96EB6); assay: Inhibition of human recombinant N-terminally GST-tagged SIRT1 at 50 uM after 4 hrs in presence of NAD+ by fluorescent deacetylase assay
T1 sequence (whole entry): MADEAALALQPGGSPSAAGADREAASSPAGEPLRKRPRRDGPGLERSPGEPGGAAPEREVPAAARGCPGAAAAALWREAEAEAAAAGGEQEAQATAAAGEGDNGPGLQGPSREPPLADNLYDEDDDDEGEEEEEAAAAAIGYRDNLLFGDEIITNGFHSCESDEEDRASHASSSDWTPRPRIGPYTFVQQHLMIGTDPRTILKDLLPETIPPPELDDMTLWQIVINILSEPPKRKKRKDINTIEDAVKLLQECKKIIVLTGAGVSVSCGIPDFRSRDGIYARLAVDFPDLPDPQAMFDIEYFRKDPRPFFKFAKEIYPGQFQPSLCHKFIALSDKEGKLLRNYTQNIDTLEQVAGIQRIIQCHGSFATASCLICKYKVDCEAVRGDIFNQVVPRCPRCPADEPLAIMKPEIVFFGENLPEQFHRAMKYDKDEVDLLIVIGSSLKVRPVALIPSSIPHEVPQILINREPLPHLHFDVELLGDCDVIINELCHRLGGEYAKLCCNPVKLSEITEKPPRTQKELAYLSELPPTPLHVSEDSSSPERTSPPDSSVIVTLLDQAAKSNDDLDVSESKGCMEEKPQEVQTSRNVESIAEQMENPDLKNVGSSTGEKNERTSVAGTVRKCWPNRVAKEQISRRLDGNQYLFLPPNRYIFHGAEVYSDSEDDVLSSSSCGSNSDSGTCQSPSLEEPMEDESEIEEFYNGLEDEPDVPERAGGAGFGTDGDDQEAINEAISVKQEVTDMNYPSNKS

[2] = target: T2, NAD-dependent protein deacetylase sirtuin-2 (Homo sapiens) (UniProt Q8IXJ6); assay: Inhibition of human recombinant N-terminally 6X-His-tagged SIRT2 at 50 uM after 4 hrs in presence of NAD+ by fluorescent deacetylase assay
T2 sequence (whole entry): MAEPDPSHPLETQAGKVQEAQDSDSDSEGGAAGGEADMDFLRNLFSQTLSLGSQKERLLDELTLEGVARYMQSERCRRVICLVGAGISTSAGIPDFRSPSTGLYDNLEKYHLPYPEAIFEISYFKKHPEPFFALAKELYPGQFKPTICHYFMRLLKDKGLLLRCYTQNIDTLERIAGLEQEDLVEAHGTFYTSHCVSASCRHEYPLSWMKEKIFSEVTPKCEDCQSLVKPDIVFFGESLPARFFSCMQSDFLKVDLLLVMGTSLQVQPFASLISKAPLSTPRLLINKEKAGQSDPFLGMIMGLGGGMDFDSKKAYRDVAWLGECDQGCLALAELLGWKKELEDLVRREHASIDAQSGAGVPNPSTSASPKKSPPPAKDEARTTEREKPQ

[3] = target: T3, NAD-dependent protein deacetylase sirtuin-3, mitochondrial (Homo sapiens) (UniProt Q9NTG7); assay: Inhibition of human recombinant N-terminally 6X-His-tagged SIRT3 at 50 uM after 4 hrs in presence of NAD+ by fluorescent deacetylase assay
T3 sequence (whole entry): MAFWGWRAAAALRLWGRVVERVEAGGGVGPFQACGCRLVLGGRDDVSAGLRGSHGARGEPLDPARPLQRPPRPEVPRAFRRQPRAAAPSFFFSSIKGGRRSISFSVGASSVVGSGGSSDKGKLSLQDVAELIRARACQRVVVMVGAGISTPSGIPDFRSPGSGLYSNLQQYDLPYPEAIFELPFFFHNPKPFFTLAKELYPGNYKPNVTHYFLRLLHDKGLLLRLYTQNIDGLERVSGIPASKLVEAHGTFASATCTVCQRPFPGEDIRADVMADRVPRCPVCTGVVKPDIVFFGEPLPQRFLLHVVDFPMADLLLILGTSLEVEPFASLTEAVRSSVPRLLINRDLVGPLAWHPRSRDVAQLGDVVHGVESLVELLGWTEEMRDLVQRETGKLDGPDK

[4] = target: T4, NAD-dependent protein deacetylase sirtuin-2 (Homo sapiens, UniProt Q8IXJ6); assay: Inhibition of human recombinant N-terminally 6X-His-tagged SIRT2 after 4 hrs in presence of NAD+ by fluorescent deacetylase assay
T4 sequence (Q8IXJ6 whole entry): T2 sequence (whole entry)

[5] = target: T2, NAD-dependent protein deacetylase sirtuin-2 (Homo sapiens); assay: Inhibition of SIRT2 in human HepG2 cells assessed as alpha-tubulin hyperacetylation after 6 hrs by ELISA; assay type: cell-based
HepG2 = assay: Toxicity in human HepG2 cells after 6 hrs; assay type: cell-based; settings: hepg2, 6 h
[6] = target: T5, NAD-dependent protein deacetylase sirtuin-1 (Homo sapiens, UniProt Q96EB6); assay: Inhibition of human recombinant N-terminally GST-tagged SIRT1 after 4 hrs in presence of NAD+ by fluorescent deacetylase assay
T5 sequence (Q96EB6 whole entry): T1 sequence (whole entry)

[7] = target: T2, NAD-dependent protein deacetylase sirtuin-2 (Homo sapiens); assay: Inhibition of SIRT2 in human MCF7 cells assessed as tubulin hyperacetylation at 10 uM after 16 hrs by Western blot; assay type: cell-based
[8] = target: T2, NAD-dependent protein deacetylase sirtuin-2 (Homo sapiens); assay: Inhibition of SIRT2 in human MCF7 cells assessed as tubulin hyperacetylation at 0.1 uM after 16 hrs by Western blot; assay type: cell-based

Compound	inhibition [1] [%]	inhibition [2] [%]	inhibition [3] [%]	other results
O=C1Nc2c(ccc(Cl)c2Cl)/C1=C\c1ccccn1	22.7	20.6	< 10	–
O=C1Nc2c(ccc(Cl)c2Cl)/C1=C/c1ccc([N+](=O)[O-])cc1	30.2	–	< 10	IC50 [4]: 10.4 µM
O=C1Nc2c(ccc(Cl)c2Cl)/C1=C/c1cc(Br)c(O)c(Br)c1	–	–	–	IC50 [6]: 40.6 µM; IC50 [4]: 28.4 µM; Activity [5]: Active; Activity (HepG2): Non-toxic
Cn1cc(C2=C(c3cn(CCCSC(=N)N)c4ccccc34)C(=O)NC2=O)c2ccccc21	–	–	–	Activity [7]: Active
CCN(CC)CCNC(=O)c1c(C)[nH]c(/C=C2\C(=O)Nc3ccc(F)cc32)c1C [SUNITINIB]	< 10	–	26.4	IC50 [4]: 123 µM
Cc1cc(C)c(/C=C2\C(=O)Nc3c2ccc(Cl)c3Cl)[nH]1	19.9	–	< 10	–
CC(/C=C/C(=O)NO)=C\[C@@H](C)C(=O)c1ccc(N(C)C)cc1	–	–	–	Activity [8]: Active
CN(C)c1ccc(/C=C2\C(=O)Nc3c2ccc(Cl)c3Cl)cc1	20.7	< 10	< 10	–
Cn1c2c(Cl)c(Cl)ccc2c2cc[nH]c(=O)c21 [BAUERINE C]	< 10	–	< 10	–

The next lines start with results.

inhibition [1] [%]	inhibition [2] [%]	inhibition [3] [%]	Compound	other results
19.6	16.5	< 10	O=C1Nc2c(ccc(Cl)c2Cl)/C1=C\c1ccncc1	–
24.4	–	< 10	O=C1Nc2c(ccc(Cl)c2Cl)/C1=C/c1ccc(F)cc1	Activity [5]: inactive; Activity (HepG2): Non-toxic
< 10	< 10	< 10	COc1cc(/C=C2\C(=O)Nc3c2ccc(Cl)c3Cl)cc(OC)c1OC	–
19.8	–	< 10	O=C1Nc2c(ccc(Cl)c2Cl)/C1=C/c1cc(C(F)(F)F)cc(C(F)(F)F)c1	–
45.4	18.3	< 10	O=C1Nc2c(ccc(Cl)c2Cl)/C1=C/c1ccc(C(F)(F)F)cc1	–
< 10	34.7	13.5	O=C1Nc2c(ccc(Cl)c2Cl)/C1=C/c1ccc(O)cc1	–
